The record followed here is patent US20230063462A1, “SULFONIMIDAMIDE COMPOUNDS AND COMPOSITIONS FOR TREATING CONDITIONS ASSOCIATED WITH NLRP ACTIVITY” (NOVARTIS AG, priority 2019, published 2023).

The assay concerns THP-1 cells. Nature of the assay: hTHP-1 assay: gramicidin-stimulated IL-1β detection in PMA-treated THP-1 cells. The assay is classed as cell-based, human. Here is the method: The following protocol is suitable for testing the activity of the compounds disclosed herein.
1. Experimental procedure • 1.1 Cell Culture • 1) Culture THP-1 cells in the complete RPMI-1640 medium with 10% FBS at 37° C., 5% CO2. • 2) Passage the cells every 3 days by inoculating 3×10^5 cells per ml. • 1.2 Compound Preparation • Prepare the 3-fold serial dilution of the compounds with DMSO in a 384-well LDV Microplate using TECAN EVO system to generate the compound source plate with 10 concentrations. […] HC: 100 μM CRID3 (MCC950)+5 μM gramicidin LC: 5 μM Gramicidin. • 1.5 IL-1β Detection • 1) Homogenize the 5× diluent #5 with a vortex and add 1 volume of stock solution in 4 volumes of distilled water. • 2) Thaw 20× stock solution of anti-IL1β-Cryptate-antibody and anti-IL1β XL-antibody. Dilute these two antibodies to 1× with detection buffer #3. • 3) Pre-mix the two ready-to-use antibody solutions just prior to use. • 4) Dispense 4 ul of pre-mixed Anti-IL1β antibodies working solution into all wells. • 5) Seal the plate and incubate overnight at 4° C. • 6) Read the cell plate using EnVison and plot Readout vs. the test compound concentration to calculate the IC50.
2. Data Analysis: • 1. IC50 of compounds can be calculated using the following formulas • Formula for IC50
% inhibition=100−100×[HCave-Readout/(HCave−LCave)] • 2. Fit the normalized data in a dose-response manner using XLfit, and calculate the compound concentration.

Setting [1] is: Homo sapiens, THP-1, Table B2, 10% FBS, class symbol, read-out: hTHP-1 IC50 in 10% FBS.
[2] abbreviates: Homo sapiens, THP-1, Table B2, 10% FBS, numeric value, read-out: hTHP-1 IC50 in 10% FBS.
Setting [3] is: Table B1, 2% fetal bovine serum, class symbol, read-out: hTHP-1 IC50.
Setting [4] is: Table B1, 2% fetal bovine serum, numeric value, read-out: hTHP-1 IC50.
Setting [5] is: Homo sapiens, THP-1, Table B1, 2% fetal bovine serum, class symbol, read-out: hTHP-1 IC50.
Where [6] appears, read: Homo sapiens, THP-1, Table B1, 2% fetal bovine serum, numeric value, read-out: hTHP-1 IC50.

Read-outs that look alike come from different tables or passages of the source.

Regarding `NS(=O)(=NC(=O)Nc1c2c(nc(C(F)(F)F)c1C1CC1)CCC2)c1ccn(C2CC2)n1` (racemic) [Example 899, (S) or (RS)-1-cyclopropyl-N′-((3-cyclopropyl-2-(trifluoromethyl)-6,7-dihydro-5H-cyclopenta [b]pyridin-4-yl)carbamoyl)-1H-pyrazole-3-sulfonimidamide], the IC50 is 5000 to 30000 nM under setting [1] and 9960 nM under setting [2].
With `CC1CCc2c1nc1c(c2NC(=O)N=S(=O)(NC#N)c2cc(C(C)(C)O)cs2)CCC1` (single isomer, unassigned) [Example 16, (R,R) or (R,S)-N-cyano-4-(2-hydroxypropan-2-yl)-N′-(((S)-3-methyl-1,2,3,5,6,7-hexahydrodicyclopenta[b,e]pyridin-8-yl)carbamoyl)thiophene-2-sulfonimidamide], the IC50 was 200 to 1000 nM under setting [3] and 204 nM under setting [4].
Taken in the same sequence, the figures for `CC(C)(O)c1ncc(S(=O)(=NC(=O)Nc2c3c(cc4c2CC4)CC3)NC#N)s1` (single isomer, unassigned) [Example 24, (R) or (S)-N-cyano-2-(2-hydroxypropan-2-yl)-N′-(tricyclo[6.2.0.03,6]deca-1,3(6),7-trien-2-ylcarbamoyl)thiazole-5-sulfonimidamide] were 8 to 40 nM and 9.7 nM.
As to `CC(C)(O)c1ncc(S(=O)(=NC(=O)Nc2c3c(cc4c2CCC4)CCC3)NC#N)s1` (stereo not drawn) [Example 3, N-cyano-N′-((1,2,3,5,6,7-hexahydro-s-indacen-4-yl)carbamoyl)-2-(2-hydroxypropan-2-yl)thiazole-5-sulfonimidamide], the IC50 runs as follows: under setting [5], 40 to 200 nM; under setting [6], 34 nM.
As to `NS(=O)(=NC(=O)Nc1c2c(nc(C(F)(F)F)c1C1CC1)CCC2)c1ccn(C2CC2)n1` (single isomer, unassigned) [Example 898, (R) or (S)-1-cyclopropyl-N′-((3-cyclopropyl-2-(trifluoromethyl)-6,7-dihydro-5H-cyclopenta [b]pyridin-4-yl)carbamoyl)-1H-pyrazole-3-sulfonimidamide], the IC50 is 40 to 200 nM under setting [1] and 114 nM under setting [2].
On to `CC(C)(O)c1coc(S(=O)(=NC(=O)Nc2c3c(cc4c2CCC4)CCC3)NC#N)c1` (single isomer, unassigned) [Example 30, (S) or (R)-N-cyano-N′-((1,2,3,5,6,7-hexahydro-s-indacen-4-yl)carbamoyl)-4-(2-hydroxypropan-2-yl)furan-2-sulfonimidamide], for which the IC50 under setting [3] fell in the range of 8 to 40 nM and the concentration for half-maximal inhibition (IC50) under setting [4] is 16.7 nM.
Taken in the same sequence, the figures for `CN(C)Cc1ccc(S(=O)(=NC(=O)Nc2c3c(cc4c2CCC4)CCC3)NC#N)c(F)c1` (single isomer, unassigned) [Example 15, (R) or (S)-N-cyano-4-((dimethylamino)methyl)-2-fluoro-N′-((1,2,3,5,6,7-hexahydro-s-indacen-4-yl)carbamoyl)benzenesulfonimidamide] were 200 to 1000 nM and 209 nM.
Turning to `CC(C)(O)c1coc(S(=O)(=NC(=O)Nc2c3c(cc4c2CCC4)CCC3)NC#N)c1` (single isomer, unassigned) [Example 29, (R) or (S)-N-cyano-N′-(1,2,3,5,6,7-hexahydro-s-indacen-4-ylcarbamoyl)-4-(2-hydroxypropan-2-yl)furan-2-sulfonimidamide], the IC50 was 40 to 200 nM under setting [3] and 58.2 nM under setting [4].
In the case of `CC(C)(O)c1ncc(S(=O)(=NC(=O)Nc2c3c(cc4c2CC4)CCC3)NC#N)s1` (single isomer, unassigned) [Example 26, (R) or (S)-N-cyano-2-(2-hydroxypropan-2-yl)-N′-((2,4,5,6-tetrahydro-1H-cyclobuta[f]inden-3-yl)carbamoyl)thiazole-5-sulfonimidamide], the IC50 reads like this: under setting [3], 8 to 40 nM; under setting [4], 13.5 nM.
With `CC(C)(O)c1nc(CO)c([S@](=O)(=NC(=O)Nc2c3c(nc4c2CCC4(C)C)CCC3)NC#N)s1` [Example 12, (S) or-N-cyano-N′-((3,3-dimethyl-1,2,3,5,6,7-hexahydrodicyclopenta[b,e]pyridin-8-yl)carbamoyl)-4-(hydroxymethyl)-2-(2-hydroxypropan-2-yl)thiazole-5-sulfonimidamide], the IC50 by setting is: under setting [5], 40 to 200 nM; under setting [6], 419 nM.
As to `CC1CCc2c1nc1c(c2NC(=O)N=S(=O)(NC#N)c2cc(C(C)(C)O)cs2)CCC1` (single isomer, unassigned) [Example 17, (R,S) or (R,R)-N-cyano-4-(2-hydroxypropan-2-yl)-N′-(((R)-3-methyl-1,2,3,5,6,7-hexahydrodicyclopenta[b,e]pyridin-8-yl)carbamoyl)thiophene-2-sulfonimidamide], the IC50 under setting [3] is 1000 to 5000 nM and the IC50 under setting [4] was determined as 1240 nM.
Taken in the same sequence, the figures for `CC(C)(O)c1ncc(S(=O)(=NC(=O)Nc2c3c(cc4c2CCC4)CCC3)NC#N)s1` (single isomer, unassigned) [Example 28, (R) or (S)-N-cyano-N′-((1,2,3,5,6,7-hexahydro-s-indacen-4-yl)carbamoyl)-2-(2-hydroxypropan-2-yl)thiazole-5-sulfonimidamide] were 8 to 40 nM and 30.8 nM.
Take `Cc1oc(S(=O)(=NC(=O)Nc2c(C(C)C)cc(F)cc2C(C)C)NC#N)cc1C(C)(C)O` (single isomer, unassigned) [Example 10, (S) or (R)-N-cyano-N′-((4-fluoro-2,6-diisopropylphenyl)carbamoyl)-4-(2-hydroxypropan-2-yl)-5-methylfuran-2-sulfonimidamide]: the IC50 reads like this: under setting [3], 1000 to 5000 nM; under setting [4], 2440 nM.
Taken in the same sequence, the figures for `CC(C)(O)c1cccc(S(=O)(=NC(=O)Nc2c3c(cc4c2CCC4)CCC3)NC#N)c1` (single isomer, unassigned) [Example 31, (S) or (R)-N-cyano-N′-((1,2,3,5,6,7-hexahydro-s-indacen-4-yl)carbamoyl)-3-(2-hydroxypropan-2-yl)benzenesulfonimidamide] were 8 to 40 nM and 33.8 nM.
With `CN(C)Cc1ccc(S(=O)(=NC(=O)Nc2c3c(cc4c2CCC4)CCC3)NC#N)c(F)c1` (single isomer, unassigned) [Example 14, (S) or (R)-N-cyano-4-((dimethylamino)methyl)-2-fluoro-N′-((1,2,3,5,6,7-hexahydro-s-indacen-4-yl)carbamoyl)benzenesulfonimidamide], the IC50 is 40 to 200 nM under setting [3] and 973 nM under setting [4].
Regarding `CC1CCc2c1nc1c(c2NC(=O)N=S(=O)(NC#N)c2cc(C(C)(C)O)cs2)CCC1` (single isomer, unassigned) [Example 19, (S,R) or (S,S)-N-cyano-4-(2-hydroxypropan-2-yl)-N′-(((R)-3-methyl-1,2,3,5,6,7-hexahydrodicyclopenta[b,e]pyridin-8-yl)carbamoyl)thiophene-2-sulfonimidamide], the IC50 is 200 to 1000 nM under setting [3] and 705 nM under setting [4].
Taken in the same sequence, the figures for `N#CNS(=O)(=NC(=O)Nc1c2c(cc3c1CCC3)CCC2)c1ccccc1` (single isomer, unassigned) [Example 34, (R) or (S)-N-cyano-N′-((1,2,3,5,6,7-hexahydro-s-indacen-4-yl)carbamoyl)benzenesulfonimidamide] were 200 to 1000 nM and 355 nM.
For `NS(=O)(=NC(=O)Nc1c2c(nc(C3CC3)c1C1CC1)CCC2)c1ccn(C2CC2)n1` (stereo not drawn) [Example 877, 1-Cyclopropyl-N′-((2,3-dicyclopropyl-6,7-dihydro-5H-cyclopenta[b]pyridin-4-yl)carbamoyl)-1H-pyrazole-3-sulfonimidamide], the IC50 under setting [1] was in the range of 40 to 200 nM and the IC50 under setting [2] was determined as 154 nM.
As for `CC(C)(O)c1ncc(S(=O)(=NC(=O)Nc2c3c(cc4c2CC4)CC3)NC#N)s1` (single isomer, unassigned) [Example 23, (S) or (R)-N-cyano-2-(2-hydroxypropan-2-yl)-N′-(tricyclo[6.2.0.03,6]deca-1,3(6),7-trien-2-ylcarbamoyl)thiazole-5-sulfonimidamide], the IC50 is, setting by setting: under setting [5], 8 to 40 nM; under setting [4], 38.9 nM.
As for `CC(C)(O)c1nc(CO)c(S(=O)(=NC(=O)Nc2c3c(nc4c2CCC4(C)C)CCC3)NC#N)s1` (single isomer, unassigned) [Example 13, (R) or (S)-N-cyano-N′-((3,3-dimethyl-1,2,3,5,6,7-hexahydrodicyclopenta[b,e]pyridin-8-yl)carbamoyl)-4-(hydroxymethyl)-2-(2-hydroxypropan-2-yl)thiazole-5-sulfonimidamide], the IC50 under setting [5] was in the range of 40 to 200 nM and the IC50 under setting [6] worked out at 112 nM.
`CC(C)(O)c1ccc(CS(=O)(=NC(=O)Nc2c3c(cc4c2CCC4)CCC3)NC#N)cc1` (single isomer, unassigned) [Example 8, (S) or (R)-N-cyano-N′-((1,2,3,5,6,7-hexahydro-s-indacen-4-yl)carbamoyl)-1-(4-(2-hydroxypropan-2-yl)phenyl)methanesulfonimidamide]: the IC50 runs as follows: under setting [5], 40 to 200 nM; under setting [4], 42.2 nM.
